{"source": "patent US8809232B2", "about": "“Herbicidal compositions comprising 4-amino-3-chloro-5-fluoro-6-(4-chloro-2-fluoro-3-methoxyphenyl) pyridine-2-carboxylic acid or a derivative thereof and halosulfuron, pyrazosulfuron and esprocarb” (Dow Agrosciences LLC, priority 2012, dated 2014)", "key": {"CYPRO": {"test_system": "CYPRO", "assay": "In-water applied herbicidal mixtures, greenhouse, transplanted paddy rice weeds", "format": "in vivo, Cyperus rotundus L.", "protocol": "(§1) Weed seeds or nutlets of the desired test plant species were planted in puddled soil (mud) prepared by mixing a shredded, non-sterilized mineral soil (50.5 percent silt, 25.5 percent clay, and 24 percent sand, with a pH of about 7.6 and an organic matter content of about 2.9 percent) and water at a 1:1 volumetric ratio. The prepared mud was dispensed in 365 mL aliquots into 16-ounce (oz.) non-perforated plastic pots with a surface area of 86.59 square centimeters (cm^2) leaving a headspace of 3 centimeters (cm) in each pot Mud was allowed to dry overnight prior to planting or transplanting. Rice seeds were planted in Sun Gro MetroMix® 306 planting mixture, which typically has a pH of 6.0 to 6.8 and an organic matter content of about 30 percent, in plastic plug trays. Seedlings at the second or third leaf stage of growth were transplanted into 840 mL of mud contained in 32-oz. non-perforated plastic pots with a surface area of 86.59 cm^2 4 days prior to herbicide application. The paddy was created by filling the headspace of the pots with 2.5 to 3 cm of water. When required to ensure good germination and healthy plants, a fungicide treatment and/or other chemical or physical treatment was applied. The plants were grown for 4-22 days in a greenhouse with an approximate 14 hr photoperiod which was maintained at about 29′C during the day and 26° C. during the night. Nutrients were added as Osmocote® (19:6:12, N:P:K^+ minor nutrients) at 2 g per 16-oz. pot and 4 g per 32-oz. pot. Water was added on a regular basis to maintain the paddy flood, and supplemental lighting was provided with overhead metal halide 1000-Watt lamps as necessary. The plants were employed for testing when they reached the first through fourth true leaf stage.\n(§2) Treatments consisted of the acid or esters of 4-amino-3-chloro-5-fluoro-6-(4-chloro-2-fluoro-3-methoxy-phenyl)pyridine-2-carboxylic acid (compound A) each formulated as an SC (suspension concentrate) and various herbicidal components alone and in combination. Forms of compound A were applied on an acid equivalent basis.\n(§3) Other herbicidal components were applied on an active ingredient basis and included acetolactate synthase (ALS)-inhibiting herbicides formulated as Permit® 75 WDG, pyrazosulfuron-ethyl formulated as Agreen® WG or Sirius® G, and VLCFA inhibiting herbicide esprocarb (technical grade material).\n(§4) Treatment requirements for each compound or herbicidal component were calculated based upon the rates being tested, the concentration of active ingredient or acid equivalent in the formulation, an application volume of 2 mL per component per pot, and an application area of 86.59 cm^2 per pot.\n(§5) For formulated compounds, a measured amount was placed in an individual 100 or 200 mL glass vial and was dissolved in a volume of 1.25% (v/v) Agri-Dex® crop oil concentrate to obtain application solutions.\n(§6) For technical grade compounds, a weighed amount was placed in an individual 100 to 200 mL glass vial and was dissolved in a volume of acetone to obtain concentrated stock solutions. […] The concentrated stock solutions obtained were diluted with an equivalent volume of an aqueous mixture containing 2.5% (v/v) crop oil concentrate so that the final application solutions contained 1.25% (v/v) crop oil concentrate.\nApplications were made by injecting with a pipetter appropriate amounts of the application solutions, individually and sequentially, into the aqueous layer of the paddy. Control plants were treated in the same manner with the solvent blank. Applications were made so that all treated plant material received the same concentrations of acetone and crop oil concentrate.\nThe treated plants and control plants were placed in a greenhouse as described above and water was added as needed to maintain a paddy flood. […]"}, "CYPIR": {"test_system": "CYPIR", "assay": "Post-emergence foliar-applied herbicidal mixtures, greenhouse, direct seeded rice weeds", "format": "in vivo, Cyperus iria L.", "description": "(§7) Seeds or nutlets of the desired test plant species were planted in a soil matrix prepared by mixing a loam or sandy loam soil (e.g., 28.6 percent silt, 18.8 percent clay, and 52.6 percent sand, with a pH of about 5.8 and an organic matter content of about 1.8 percent) and calcareous grit in an 80 to 20 ratio. The soil matrix was contained in plastic pots with a volume of 1 quart and a surface area of 83.6 square centimeters (cm^2). When required to ensure good germination and healthy plants, a fungicide treatment and/or other chemical or physical treatment was applied. The plants were grown for 8-22 days in a greenhouse with an approximate 14 hr photoperiod which was maintained at about 29° C. during the day and 26° C. during the night. Nutrients (Peters Excel® 15-5-15 5-Ca 2-Mg and iron chelate) were applied in the irrigation solution as needed and water was added on a regular basis. Supplemental lighting was provided with overhead metal halide 1000-Watt lamps as necessary. The plants were employed for testing when they reached the first through fourth true leaf stage.\nas §2, with “(Compound A),” for “(compound A)”, “concentrate),” for “concentrate)”\n(§8) Other herbicidal components were applied on an active ingredient basis and included the acetolactate synthase (ALS)-inhibiting herbicides halosulfuron-methyl formulated as Permit® 75 WDG, pyrazosulfuron-ethyl formulated as Agreen® WG or Sirius® G, and the VLCFA inhibiting herbicide esprocarb (technical grade material).\n(§9) Treatment requirements were calculated based upon the rates being tested, the concentration of active ingredient or acid equivalent in the formulation, and a 12 mL application volume at a rate of 187 L/ha.\n(§10) For treatments comprised of formulated compounds, measured amounts of compounds were placed individually in 25 mL glass vials and diluted in a volume of 1.25% (v/v) Agri-Dex® crop oil concentrated to obtain 12× stock solutions. […]\n(§11) For treatments comprised of formulated and technical compounds, weighed amounts of the technical materials were placed individually in 25 mL glass vials and dissolved in a volume of 97:3 v/v acetone/DMSO to obtain 12× stock solutions, and measured amounts of the formulated compounds were placed individually in 25 mL glass vials and diluted in a volume of 1.5% (v/v) crop oil concentrate or water to obtain 12× stock solutions. […]"}, "BRAPP": {"test_system": "BRAPP", "assay": "Post-emergence foliar-applied herbicidal mixtures, greenhouse, direct seeded rice weeds", "format": "in vivo", "description": "as §7\nas §2, with “(Compound A),” for “(compound A)”, “concentrate),” for “concentrate)”\nas §8, §9\nFor treatments comprised of formulated compounds, measured amounts of compounds were placed individually in 25 mL glass vials and diluted in a volume of 1.25% (v/v) Agri-Dex® crop oil concentrated to obtain 12× stock solutions. […] Application solutions were prepared by adding an appropriate amount of each stock solution (e.g., 1 mL) and diluted to the appropriate final concentrations with the addition of 10 mL of an aqueous mixture of 1.25% (v/v) crop oil concentrate so that the final spray solutions contained 1.25+/−0.05% (v/v) crop oil concentrate.\nFor treatments comprised of technical compounds, weighed amounts can be placed individually in 25 mL glass vials and dissolved in a volume of 97:3 v/v acetone/DMSO to obtain 12× stock solutions. […] Application solutions can be prepared by adding an appropriate amount of each stock solution (e.g., 1 mL) and diluted to the appropriate final concentrations with the addition of 10 mL of an aqueous mixture of 1.5% (v/v) crop oil concentrate so that the final spray solutions contain 1.25% (v/v) crop oil concentrate. When technical materials are used, the concentrated stock solutions can be added to the spray solutions so that the final acetone and DMSO concentrations of the application solutions are 16.2% and 0.5%, respectively.\nFor treatments comprised of formulated and technical compounds, weighed amounts of the technical materials were placed individually in 25 mL glass vials and dissolved in a volume of 97:3 v/v acetone/DMSO to obtain 12× stock solutions, and measured amounts of the formulated compounds were placed individually in 25 mL glass vials and diluted in a volume of 1.5% (v/v) crop oil concentrate or water to obtain 12× stock solutions. […] Application solutions were prepared by adding an appropriate amount of each stock solution (e.g., 1 mL) and diluted to the appropriate final concentrations with the addition of an appropriate amount of an aqueous mixture of 1.5% (v/v) crop oil concentrate so that the final spray solutions contained 1.25% (v/v) crop oil concentrate. […]"}, "SCPJU [1]": {"test_system": "SCPJU", "assay": "Post-emergence foliar-applied herbicidal mixtures, greenhouse, direct seeded rice weeds", "format": "in vivo, Schoenoplectus juncoides (Roxb.) Palla", "description": "as §7, with “stage. […]” for “stage.”\nas §9, §10, §11"}, "SCPJU [2]": {"test_system": "SCPJU", "assay": "In-water applied herbicidal mixtures, greenhouse, transplanted paddy rice weeds", "format": "in vivo, Schoenoplectus juncoides (Roxb.) Palla", "protocol": "as §1\nas §2, with “basis. […]” for “basis.”\nas §4\nFor formulated compounds, a measured amount was placed in an individual 100 or 200 mL glass vial and was dissolved in a volume of 1.25% (v/v) Agri-Dex® crop oil concentrate to obtain application solutions. […]"}, "FIMMI": {"test_system": "FIMMI", "assay": "In-water applied herbicidal mixtures, greenhouse, transplanted paddy rice weeds", "format": "in vivo, Fimbristylis miliacea (L.) Vahl", "protocol": "as §1, §2, §3, §4, §5, §6\nApplications were made by injecting with a pipetter appropriate amounts of the application solutions, individually and sequentially, into the aqueous layer of the paddy. […]"}, "ECHCO": {"test_system": "ECHCO", "assay": "Post-emergence foliar-applied herbicidal mixtures, greenhouse, direct seeded rice weeds", "format": "in vivo, Echinochloa colona (L.) Link", "conditions": "105 g ai/ha", "description": "as §7, with “stage. […]” for “stage.”\nas §9, §10, §11"}}}
{"smiles": "CCN(C(=O)SCc1ccccc1)C(C)C(C)C", "note": "(stereo not drawn) [Esprocarb, S-(phenylmethyl) N-(1,2-dimethylpropyl)-N-ethylcarbamothioate]", "values": [{"measurement": "Visual Weed Control (%) - 21 DAA CYPRO Obs", "setting": "CYPRO; 105 g ai/ha", "value": 0, "unit": "%"}, {"measurement": "Visual Weed Control (%) - 21 DAA CYPRO Obs", "setting": "CYPRO; 210 g ai/ha", "value": 50, "unit": "%"}, {"measurement": "Visual Weed Control (%) - 22 DAA CYPIR Obs", "setting": "CYPIR; 52.5 g ai/ha", "value": 0, "unit": "%"}, {"measurement": "Visual Weed Control (%) - 22 DAA CYPIR Obs", "setting": "CYPIR; 105 g ai/ha", "value": 0, "unit": "%"}, {"measurement": "Visual Weed Control (%) - 22 DAA BRAPP Obs", "setting": "BRAPP; 52.5 g ai/ha", "value": 0, "unit": "%"}, {"measurement": "Visual Weed Control (%) - 22 DAA BRAPP Obs", "setting": "BRAPP; 105 g ai/ha", "value": 0, "unit": "%"}, {"measurement": "Visual Weed Control (%) - 22 DAA SCPJU Obs", "setting": "SCPJU [1]; 52.5 g ai/ha", "value": 0, "unit": "%"}, {"measurement": "Visual Weed Control (%) - 22 DAA SCPJU Obs", "setting": "SCPJU [1]; 105 g ai/ha", "value": 0, "unit": "%"}, {"measurement": "Visual Weed Control (%) - 21 DAA SCPJU Obs", "setting": "SCPJU [2]; 105 g ai/ha", "value": 0, "unit": "%"}, {"measurement": "Visual Weed Control (%) - 21 DAA SCPJU Obs", "setting": "SCPJU [2]; 210 g ai/ha", "value": 0, "unit": "%"}, {"measurement": "Visual Weed Control (%) - 21 DAA FIMMI Obs", "setting": "FIMMI; 105 g ai/ha", "value": 0, "unit": "%"}, {"measurement": "Visual Weed Control (%) - 21 DAA FIMMI Obs", "setting": "FIMMI; 210 g ai/ha", "value": 0, "unit": "%"}, {"measurement": "Visual Weed Control (%) - 22 DAA ECHCO Obs", "setting": "ECHCO", "value": 0, "unit": "%"}]}
